Series [1] concerns human mesenchymal stem cells (MSCs).
Protocol: Briefly, 5 ml of bone marrow aspirate was obtained from consenting patients who underwent post-traumatic orthopaedic surgery. The mononuclear cells were obtained following centrifugation in a density gradient (Ficoll-Hypaque); the cells thus obtained were washed with PBS, resuspended in a D-MEM culture medium containing 15% FBS, then counted and seeded in plastic flasks at a concentration of 2×10^6 cells/flask T150. After 1 week, the non-adherent cells were removed and the adherent cells expanded in culture up to the concentration of 5000 MSC/cm^2 and used, finally, in the culture passage p.1 for the experiments.
Cytoxicity was evaluated in the culture after 24 h and 72 h by means of the lactate dehydrogenase (LDH) method, using a commercial kit (Cytotoxicity Detection Kit, Roche, Milan). In order to avoid interferences due to components present in serum, the cells were maintained under low serum conditions (5%) in the culture medium.
The test system is the same in series [2]. Nature of the series: Cell viability by Toluidine Blue staining of MSCs. The format is cell-based. To be noted: 72 h, 33 μM. From the text:
At the end of the period of culture, moreover, the MSCs underwent staining with Toluidine Blue stain in order to evaluate the residual viability, which was then quantified by means of a spectrophotometer (Nanoquant, Tecan Group, Mannedorf, Switzerland).

In series [3] the test system is human osteoclasts (OCs). Particulars: OCs on Biocoat Osteologic slides, qualitative evaluation. The method, then:
The ability of OCs to perform a physiological function of degrading the inorganic matrix was assessed by means of the ‘Pit Assay’, in which the OCs were cultured on Biocoat Osteologic (BD Bioscience) slides according to the procedure described in detail above.

Series [4] concerns human mesenchymal stem cells (MSCs). Nature of the series: Mineralisation assay on MSCs (Alizarin Red). Format: cell-based. To be noted: for mineralising capacity of MSCs (Alizarin Red): osteogenic conditions, dose dependence. The method, then:
The evaluation of the functional capacity to deposit inorganic matrix on the part of MSC cells was evaluated with an in vitro mineralisation assay, according to an already consolidated method (Grassi F. et al. J. Tissue Eng Reg Med, 2013); MSC cells were maintained under culture for 21 days in the presence of […] of ascorbic acid, 2 mM of β-glycerophosphate and 100 nM of dexamethasone. […] Finally, the mineralised matrix was visualised by staining with Alizarin Red and quantified by spectrophotometry (Nanoquant, Tecan Group, Mannedorf, Switzerland).

The test system of series [5] is human osteoclasts (OCs). Nature of the series: Differentiation of human osteoclasts (TRAP staining count). Particulars: for inhibition of OC differentiation (number of TRAP-positive mature OCs): monocyte precursors with M-CSF and RANKL, 8 days, 1-33 μM. The format is cell-based. From the text: Human osteoclasts (OCs) were obtained according to a method already described and published (Grassi F. et al. J Cell Physiology 2011 April; 226(4):982-90). Briefly, the OCs were differentiated in vitro starting from monocytic precursors obtained from the peripheral blood of healthy, consenting donors; in particular, whole blood was stratified on Ficoll-Hypaque and the mononuclear cells were obtained by centrifugation. Monocytes were isolated from the latter by immunomagnetic separation of cells positive to the antigen CD11b via a MACS apparatus (Miltenyi Biotech, Calderara di Reno, Bologna). […] The number of mature OCs obtained for each condition of stimulation was then identified by means of a manual count, under a microscope, of the multinuclear cells positive to tartrate-resistant acid phosphatase (TRAP) staining.

Series [6] can be described thus: Determination of the release of H2S by amperometry. Format: physicochemical. The method, then: Amperometry—the potential release of H2S from the tested compound was evaluated by means of the amperometric method, using an Apollo-4000 Free Radical Analyzer (WPI) connected to mini-electrodes selective for H2S. The experiments were conducted at room temperature in phosphate buffer (NaH2PO4.H2O 0.128 g, Na2HPO4.12H2O 0.597 g, NaCl 4.388 g in 500 mL H2O) at pH 7.4. When required by the experimental protocol, 4 mM L-cysteine was also dissolved in the above-described phosphate buffer, maintaining the pH a 7.4. After stabilisation of the mini-electrodes selective for H2S in 10 mL of buffer, 100 μL of the compound DM-22 solubilised in DMSO was added at the final concentration of 1 mM. The formation of H2S was recorded for 20 minutes. The same experimental procedure was also carried out in the buffer containing L-cysteine. The correspondence between the amperometric currents (recorded in pA) and the concentrations of H2S was determined by means of suitable calibration curves previously obtained using increasing concentrations of NaHS (1 μM, 3 μM, 5 μM, 10 μM) at pH 4.
The curves related to the progressive release of H2S as a function of time were analysed by means of the following equation: Ct=Cmax−(Cmax·e−k·t)
Where Ct is the concentration at time t, Cmax is the maximum concentration obtained during the recording time and the constant k is 0.693/t½, and where t½ is the time it takes to reach half of Cmax. The values of Cmax and t½ were calculated by means of software: Graph Pad Prism 4.0 and expressed as a value±standard error.

For series [7], the system named is human mesenchymal stem cells (MSCs). Briefly: Cell proliferation of MSCs by tritiated thymidine method. To be noted: 33 μM, both at 24 and 72 h after stimulation, vs unstimulated control. The format is cell-based. Here is the method:
Cell proliferation was measured in the MSCs by means of the tritiated thymidine method, in the presence or absence of stimuli, following a method already published in precedence (Gabusi E. et al. J Cell Physiol. 2011). […] After 48 h, tritiated thymidine (Amersham Pharmacia Biotech Italy, Milan) was added to each well at the final concentration of 2 mCi/ml and the culture further incubated for 18 h at 37° C. Lastly, the plates were aspirated through glass fibre filters and dried and the radioactivity incorporated in the cells, indicative of proliferative activity, was measured by means of a TopCount Microplate Scintillation Counter (Packard Instrument Company, Meriden, Conn.). The data are expressed as cpm (count per minute).

As to `O=C(NCCCC(O)(P(=O)(O)O)P(=O)(O)O)c1ccc(N=C=S)cc1` [DM-22], the “cytotoxicity (LDH assay)” value in series [1] (1-33 μM, at both 24 h and 72 h, low serum (5%)) is “does not induce any cytotoxicity”. In series [1] (24 h), the “cytotoxicity (LDH assay) compared to the basal level induced by serum deprivation” value is recorded as “significant protection”. For the same molecule, the “cellular toxicity (LDH assay)” value in series [1] (72 h, 33 μM) is “completely absent”. For the same molecule, in series [2], the “cell viability (Toluidine Blue) compared to the unstimulated control” value is “does not bring about any decrease”. Further, in the series on human osteoclasts (OCs) [3], the “inhibition of erosive capacity of OCs (pits, qualitative)” value was “only at the concentrations of 10 and 33 μM do the eroded areas disappear completely”. For the same molecule, the “mineralisation compared to MSCs treated with alendronate” value in series [4] (21 days, concentrations of 3.3, 10 and 33 μM) is on record as “significantly greater mineralisation”. Moreover, the “degree of mineralisation compared to control MSCs” value in series [4] (21 days, maximum concentration of 33 μM) is listed as “significantly greater than that of the control MSCs”. Also, the “mineralising capacity of MSCs (Alizarin Red)” value (“mineralising capacity of MSCs” below) in series [4] (21 days) is recorded as “dose-dependent capacity to induce mineralisation”. Moreover, the “range of concentration in which it stimulates the anabolic function and significantly inhibits osteoclasts” value in series [4] (summary statement) is 10 to 33 µM. For the same molecule, the “times less effective than alendronate in suppressing OCs” value in the series with human osteoclasts (OCs) [5] (concentrations being equal) was 33-100 times. Besides, the “inhibition of OC differentiation (number of TRAP-positive mature OCs)” value with human osteoclasts (OCs) [5] was “statistically significant only at the highest concentration (33 μM)”. The “concentration of H2S detected after 20 minutes of incubation” value in series [6] (1 mM compound in phosphate buffer pH 7.4, room temperature, no L-cysteine) is given as “approximately 1.5 μM”. The “maximum concentration of H2S detected after 20 minutes of incubation” value in series [6] (1 mM compound in phosphate buffer pH 7.4 in the presence of 4 mM L-cysteine) is “approximately 45 μM”. Also, in series [6] (summary statement), the “liberation of H2S” value is on record as “capable of liberating H2S with slow-release kinetics”. Besides, in series [7], the “proliferative activity in MSCs” value is on record as “does not induce any significant decrease in proliferation”.

As for `[Na+].[SH-]` [NaHS, reference compound], the “mineralising capacity of MSCs” value in series [4] (21 days) is listed as “respond as expected”.

With `NCCCC(O)(P(=O)(O)O)P(=O)(O)O` [alendronate, reference compound], the “cell viability (Toluidine Blue) compared to the unstimulated control” value in series [2] is “significant decrease in cell viability”. In addition, in the series on human osteoclasts (OCs) [5], the “inhibition of OC differentiation (number of TRAP-positive mature OCs)” value is given as “strong capacity to inhibit OC differentiation starting from the lowest concentration used in the study (1 μM)”. Also, the “proliferative activity in MSCs” value in series [7] is “significant inhibition of proliferative activity”.

For the molecule `[Ca+2].[Cl-].[Cl-]` [calcium chloride, reference compound], in series [4] (21 days), the “mineralising capacity of MSCs” value is on record as “respond as expected”.
